Patent US11780832B2, “Lactivicin compounds, their preparation and use as antibacterial agents” (priority 2021, dated 2023)
≈ marks a conversion by molar mass, not a printed value.

Key:
Format in all cases: cell-based
[1] = tested on: Escherichia coli Empty pSMART plasmid; experiment: MIC, CLSI broth microdilution
Procedure, shortened: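 CLSI broth microdilution with 2-fold serial dilutions over a final range of 16-0.0125 μg/mL. Final inoculum 5×10^5 CFU/mL, using genotyped ATCC or clinical isolates taken two subcultures from frozen stock.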

[2] = tested on: Escherichia coli Isogenic TEM-10; experiment: MIC, CLSI broth microdilution
Procedure, shortened: (§1)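 Genotyped isolates from ATCC or clinical specimens were passaged twice from frozen stock and tested at 5×10^5 CFU/mL final inoculum. Compounds were 2-fold diluted to final 16-0.0125 μg/mL per CLSI broth microdilution.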

[3] = tested on: Escherichia coli Isogenic TEM-26; experiment: MIC, CLSI broth microdilution
Procedure, shortened: as §1

[4] = tested on: Escherichia coli Elevated AmpC; experiment: Synergistic activity: MIC in the presence of Avibactam
Procedure, shortened: (§2)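 CLSI broth microdilution MIC with a β-lactamase inhibitor added at fixed concentration or fixed ratio before inoculation; final compound range 16-0.0125 μg/mL, inoculum 5×10^5 CFU/mL. Synergy taken as MIC reduction relative to compound tested without inhibitor.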

[5] = tested on: Enterobacter cloacae species complex Elevated AmpC; experiment: as above
Procedure, shortened: as §2

Escherichia coli CMY-DHA = experiment: as above
Procedure, shortened: as §2

[6] = tested on: Citrobacter freundii species complex Elevated AmpC; experiment: as above; details: row r16, in the presence of Avibactam @ 4 μg/mL
Procedure, shortened: as §2

[7] = tested on: Proteus mirabilis CMY-DHA; experiment: as above; details: row r36, in the presence of Avibactam @ 4 μg/mL
Procedure, shortened: as §2

[8] = strain of row r10, in the presence of Avibactam @ 4 μg/mL
[9] = strain of row r11, in the presence of Avibactam @ 4 μg/mL
[10] = strain of row r12, in the presence of Avibactam @ 4 μg/mL
[11] = strain of row r13, in the presence of Avibactam @ 4 μg/mL
[12] = strain of row r14, in the presence of Avibactam @ 4 μg/mL
[13] = strain of row r15, in the presence of Avibactam @ 4 μg/mL
[14] = in the presence of Avibactam @ 4 μg/mL
[15] = strain of row r7, in the presence of Avibactam @ 4 μg/mL
[16] = strain of row r20, in the presence of Avibactam @ 4 μg/mL
[17] = strain of row r26, in the presence of Avibactam @ 4 μg/mL
[18] = strain of row r27, in the presence of Avibactam @ 4 μg/mL
[19] = strain of row r28, in the presence of Avibactam @ 4 μg/mL
[20] = strain of row r29, in the presence of Avibactam @ 4 μg/mL
[21] = strain of row r30, in the presence of Avibactam @ 4 μg/mL
[22] = strain of row r31, in the presence of Avibactam @ 4 μg/mL
[23] = strain of row r34, in the presence of Avibactam @ 4 μg/mL
[24] = strain of row r35, in the presence of Avibactam @ 4 μg/mL

Structure (SMILES): CC(C)(O/N=C(\C(=O)N[C@@H]1C(=O)N2C(C(=O)[O-])=C(C[n+]3ccccc3)CS[C@H]12)c1csc(N)n1)C(=O)O [Ceftazidime, ceftazidime, reference compound]
- MIC [1]: 0.25 µg/mL (≈ 0.457 µM)
- MIC [2]: > 32 µg/mL
- MIC [3]: > 32 µg/mL
- MIC [4, 8]: 0.12 µg/mL
- MIC [4, 9]: 0.06 µg/mL
- MIC [4, 10]: 0.12 µg/mL
- MIC [4, 11]: 0.12 µg/mL
- MIC [4, 12]: 0.12 µg/mL
- MIC [4, 13]: 0.5 µg/mL
- MIC [5, 14]: 0.25 µg/mL
- MIC [5, 15]: 0.5 µg/mL
- MIC [5, 16]: 0.03 µg/mL
- MIC (Escherichia coli CMY-DHA; [17]): 0.5 µg/mL
- MIC (Escherichia coli CMY-DHA; [18]): 0.5 µg/mL
- MIC (Escherichia coli CMY-DHA; [19]): 0.06 µg/mL
- MIC (Escherichia coli CMY-DHA; [20]): 0.12 µg/mL
- MIC (Escherichia coli CMY-DHA; [21]): <=0.015 μg/mL
- MIC (Escherichia coli CMY-DHA; [22]): 0.12 µg/mL
- MIC (Escherichia coli CMY-DHA; [23]): 0.5 µg/mL
- MIC (Escherichia coli CMY-DHA; [24]): 0.25 µg/mL
- MIC [6]: 0.25 µg/mL
- MIC [7]: 0.12 µg/mL

Structure (SMILES): Nc1nc(/C(=N/OC2(C(=O)O)CCOCC2)C(=O)N[C@H]2CON(C3(C(=O)O)C[C@H](N4C(=O)c5cc(O)c(O)cc5C4=O)C(=O)O3)C2=O)cs1 (stereo partly drawn) [Cmpd 8, 4-({(Z)-[1-(2-amino-1,3-thiazol-4-yl)-2-({(4S)-2-[(4S)-2-carboxy-4-(5,6-dihydroxy-1,3-dioxo-1,3-dihydro-2H-isoindol-2-yl)-5-oxooxolan-2-yl]-3-oxo-1,2-oxazolidin-4-yl}amino)-2-oxoethylidene]amino}oxy)oxane-4-carboxylic acid]
- MIC [2]: 0.0149 µg/mL (≈ 0.0211 µM)
- MIC [3]: 0.0149 µg/mL (≈ 0.0211 µM)
- MIC [4, 8]: <=0.008 μg/mL
- MIC [4, 9]: 0.03 µg/mL
- MIC [4, 10]: 0.03 µg/mL
- MIC [4, 11]: <=0.008 μg/mL
- MIC [4, 12]: <=0.008 μg/mL
- MIC [4, 13]: 0.06 µg/mL
- MIC [5, 14]: 0.06 µg/mL
- MIC [5, 15]: 0.12 µg/mL
- MIC [5, 16]: <=0.008 μg/mL
- MIC (Escherichia coli CMY-DHA; [17]): 0.03 µg/mL
- MIC (Escherichia coli CMY-DHA; [18]): <=0.008 μg/mL
- MIC (Escherichia coli CMY-DHA; [19]): <=0.008 μg/mL
- MIC (Escherichia coli CMY-DHA; [20]): 0.06 µg/mL
- MIC (Escherichia coli CMY-DHA; [21]): <=0.008 μg/mL
- MIC (Escherichia coli CMY-DHA; [22]): 0.06 µg/mL
- MIC (Escherichia coli CMY-DHA; [23]): 0.015 µg/mL
- MIC (Escherichia coli CMY-DHA; [24]): <=0.008 μg/mL
- MIC [6]: 0.03 µg/mL
- MIC [7]: 0.5 µg/mL

Structure (SMILES): Nc1nc(/C(=N/OC2(C(=O)O)CCC(F)(F)CC2)C(=O)N[C@H]2CON(C3(C(=O)O)C[C@H](N4C(=O)c5cc(O)c(O)cc5C4=O)C(=O)O3)C2=O)cs1 (stereo partly drawn) [Cmpd 10, (4S)-2-[(4S)-4-{[(2Z)-2-(2-amino-1,3-thiazol-4-yl)-2-{[(1-carboxy-4,4-difluorocyclohexyl)oxy]imino}acetyl]amino}-3-oxo-1,2-oxazolidin-2-yl]-4-(5,6-dihydroxy-1,3-dioxo-1,3-dihydro-2H-isoindol-2-yl)-5-oxooxolane-2-carboxylic acid]
- MIC [1]: ≤ 0.015 µg/mL
- MIC [4, 8]: <=0.008 μg/mL
- MIC [4, 9]: 0.03 µg/mL
- MIC [4, 10]: 0.03 µg/mL
- MIC [4, 11]: <=0.008 μg/mL
- MIC [4, 12]: <=0.008 μg/mL
- MIC [4, 13]: 0.06 µg/mL
- MIC [5, 14]: 0.06 µg/mL
- MIC [5, 15]: 0.12 µg/mL
- MIC [5, 16]: <=0.008 μg/mL
- MIC (Escherichia coli CMY-DHA; [17]): 0.06 µg/mL
- MIC (Escherichia coli CMY-DHA; [18]): <=0.008 μg/mL
- MIC (Escherichia coli CMY-DHA; [19]): 0.03 µg/mL
- MIC (Escherichia coli CMY-DHA; [20]): 0.06 µg/mL
- MIC (Escherichia coli CMY-DHA; [21]): <=0.008 μg/mL
- MIC (Escherichia coli CMY-DHA; [22]): 0.06 µg/mL
- MIC (Escherichia coli CMY-DHA; [23]): 0.015 µg/mL
- MIC (Escherichia coli CMY-DHA; [24]): 0.015 µg/mL
- MIC [6]: 0.03 µg/mL
- MIC [7]: 0.5 µg/mL

Structure (SMILES): Nc1nc(/C(=N/OC2(C(=O)O)CC2)C(=O)N[C@H]2CON(C3(C(=O)O)C[C@H](N4C(=O)c5cc(O)c(O)cc5C4=O)C(=O)O3)C2=O)ns1 (stereo partly drawn) [Cmpd 18, (4S)-2-[(4S)-4-{[(2Z)-2-(5-amino-1,2,4-thiadiazol-3-yl)-2-{[(1-carboxycyclopropyl)oxy]imino}acetyl]amino}-3-oxo-1,2-oxazolidin-2-yl]-4-(5,6-dihydroxy-1,3-dioxo-1,3-dihydro-2H-isoindol-2-yl)-5-oxooxolane-2-carboxylic acid]
- MIC [1]: 0.0149 µg/mL (≈ 0.0225 µM)
- MIC [4, 8]: <=0.008 μg/mL
- MIC [4, 9]: <=0.008 μg/mL
- MIC [4, 10]: 0.06 µg/mL
- MIC [4, 11]: <=0.008 μg/mL
- MIC [4, 12]: <=0.008 μg/mL
- MIC [4, 13]: 0.06 µg/mL
- MIC [5, 14]: 0.06 µg/mL
- MIC [5, 15]: 0.12 µg/mL
- MIC [5, 16]: <=0.008 μg/mL
- MIC (Escherichia coli CMY-DHA; [17]): 0.03 µg/mL
- MIC (Escherichia coli CMY-DHA; [18]): <=0.008 μg/mL
- MIC (Escherichia coli CMY-DHA; [19]): 0.03 µg/mL
- MIC (Escherichia coli CMY-DHA; [20]): 0.06 µg/mL
- MIC (Escherichia coli CMY-DHA; [21]): <=0.008 μg/mL
- MIC (Escherichia coli CMY-DHA; [22]): 0.06 µg/mL
- MIC (Escherichia coli CMY-DHA; [23]): 0.015 µg/mL
- MIC (Escherichia coli CMY-DHA; [24]): 0.015 µg/mL
- MIC [6]: 0.03 µg/mL
- MIC [7]: 0.06 µg/mL

Structure (SMILES): Nc1nc(/C(=N/OC2(C(=O)O)CCOCC2)C(=O)N[C@H]2CON(C3(C(=O)O)C[C@H](N4C(=O)c5cc(O)c(O)nc5C4=O)C(=O)O3)C2=O)cs1 (stereo partly drawn) [Cmpd 26, 4-({(Z)-[1-(2-amino-1,3-thiazol-4-yl)-2-({(4S)-2-[(4S)-2-carboxy-4-(2,3-dihydroxy-5,7-dioxo-5,7-dihydro-6H-pyrrolo[3,4-b]pyridin-6-yl)-5-oxooxolan-2-yl]-3-oxo-1,2-oxazolidin-4-yl}amino)-2-oxoethylidene]amino}oxy)oxane-4-carboxylic acid]
- MIC [2]: 0.03 µg/mL (≈ 0.0425 µM)
- MIC [4, 8]: 0.015 µg/mL
- MIC [4, 9]: 0.12 µg/mL
- MIC [4, 10]: 0.25 µg/mL
- MIC [4, 11]: <=0.008 μg/mL
- MIC [4, 12]: 0.015 µg/mL
- MIC [4, 13]: 0.12 µg/mL
- MIC [5, 14]: 0.25 µg/mL
- MIC [5, 15]: 0.5 µg/mL
- MIC [5, 16]: <=0.008 μg/mL
- MIC (Escherichia coli CMY-DHA; [17]): 0.25 µg/mL
- MIC (Escherichia coli CMY-DHA; [18]): 0.03 µg/mL
- MIC (Escherichia coli CMY-DHA; [19]): 0.06 µg/mL
- MIC (Escherichia coli CMY-DHA; [20]): 0.5 µg/mL
- MIC (Escherichia coli CMY-DHA; [21]): <=0.008 μg/mL
- MIC (Escherichia coli CMY-DHA; [22]): 0.5 µg/mL
- MIC (Escherichia coli CMY-DHA; [23]): 0.06 µg/mL
- MIC (Escherichia coli CMY-DHA; [24]): 0.06 µg/mL
- MIC [6]: 0.25 µg/mL
- MIC [7]: 0.06 µg/mL

Structure (SMILES): Nc1nc(/C(=N/OC2(C(=O)O)CC2)C(=O)N[C@H]2CON(C3(C(=O)O)C[C@H](N4Cc5cc(O)c(O)cc5C4=O)C(=O)O3)C2=O)cs1 (stereo partly drawn) [Cmpd 28, (4S)-2-[(4S)-4-{[(2Z)-2-(2-amino-1,3-thiazol-4-yl)-2-{[(1-carboxycyclopropyl)oxy]imino}acetyl]amino}-3-oxo-1,2-oxazolidin-2-yl]-4-(5,6-dihydroxy-1-oxo-1,3-dihydro-2H-isoindol-2-yl)-5-oxooxolane-2-carboxylic acid]
- MIC [2]: 0.03 µg/mL (≈ 0.0464 µM)
- MIC [3]: 0.03 µg/mL (≈ 0.0464 µM)
- MIC [4, 8]: 0.015 µg/mL
- MIC [4, 9]: 0.06 µg/mL
- MIC [4, 10]: 0.03 µg/mL
- MIC [4, 11]: <=0.008 μg/mL
- MIC [4, 12]: 0.06 µg/mL
- MIC [4, 13]: 0.25 µg/mL
- MIC [5, 14]: 0.25 µg/mL
- MIC [5, 15]: 0.5 µg/mL
- MIC [5, 16]: 0.015 µg/mL
- MIC (Escherichia coli CMY-DHA; [17]): 0.12 µg/mL
- MIC (Escherichia coli CMY-DHA; [18]): <=0.008 μg/mL
- MIC (Escherichia coli CMY-DHA; [19]): 0.06 µg/mL
- MIC (Escherichia coli CMY-DHA; [20]): 0.12 µg/mL
- MIC (Escherichia coli CMY-DHA; [21]): <=0.008 μg/mL
- MIC (Escherichia coli CMY-DHA; [22]): 0.12 µg/mL
- MIC (Escherichia coli CMY-DHA; [23]): 0.015 µg/mL
- MIC (Escherichia coli CMY-DHA; [24]): 0.03 µg/mL
- MIC [6]: 0.12 µg/mL
- MIC [7]: 0.03 µg/mL
